We go through 39 compounds from patent US6048852A, “β-thiopropionyl-aminoacid derivatives and their use as β-lactamase inhibitors” (SmithKline Beecham p.l.c., priority 1996, dated 2000).

The target of assay [1] is B. fragilis CfiA metallo-β-lactamase (Bacteroides fragilis, UniProt P25910). Description: I50 screen, nitrocefin reporter substrate, CfiA metallo-β-lactamase. Type of assay: biochemical. As to conditions: 25 mM PIPES pH 7, 37° C., nitrocefin 91 μM, 5 minute preincubation, Zn2+ 100 μM; enumerated Examples; read-out: I50 values against B. fragilis CfiA metallo-β-lactamase. How it is done:
The inhibitory activity of the compounds of the invention was measured in 25 mM PIPES pH 7 buffer at 10 concentrations (1000, 333, 111, 37, 12.3, 4.1, 1.4, 0.46, 0.15 and 0.05 μM) at 37° C. using nitrocefin (91 μM final concentration) as the reporter substrate. The assays were performed with a 5 minute preincubation of enzyme and inhibitor and were conducted in the presence of added zinc sulphate (Zn^2+ 100 μM, final concentration). the methodology is described in detail in the following references: Payne et al (1991), J. Antimicrob. Chemother., 28:255; Payne et al (1994), Antimicrob. Agents and Chemother., 38:767.

Assay [2] deals with Bacteroides fragis 262 strain, which produces CfiA metallo-β-lactamase. Description: Antibacterial activity (MIC) in combination with meropenem. Type of assay: cell-based, Bacteroides fragilis. The text has this: Antibacterial activity of compounds of the invention in combination with the carbapenem antibiotic, meropenem, against the Bacteroides fragis 262 strain, which produces CfiA metallo-β-lactamase:
[MIC=minimum inhibitory concentration (μg/ml)]

Where [3] appears, read: read-out: MIC (μg/ml) of compound alone.

Where two headings read alike, the source gives them in different places. A value given as a limit tells only on which side of the number the result lay.

Sequence of B. fragilis CfiA metallo-β-lactamase (P25910 19-249): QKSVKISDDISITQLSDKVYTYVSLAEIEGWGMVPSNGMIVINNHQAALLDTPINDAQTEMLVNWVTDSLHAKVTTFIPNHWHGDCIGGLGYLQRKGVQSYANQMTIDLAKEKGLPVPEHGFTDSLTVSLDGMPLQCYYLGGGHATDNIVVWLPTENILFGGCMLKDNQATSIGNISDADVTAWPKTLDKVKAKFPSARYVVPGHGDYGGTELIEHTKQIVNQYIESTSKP

For the compound `O=C(NC(C(=O)O)c1cccc(F)c1)C(CS)Cc1ccccc1` (stereo not drawn) [Example 17, N-[2'-Benzyl-3'-mercaptopropionyl]-3-fluorophenylglycine], the IC50 in assay [1] is < 1 µM.
As for `O=C(NC(C(=O)O)c1ccco1)C(CS)Cc1ccccc1` (stereo not drawn) [Example 30, N-[2'-Benzyl-3'-mercaptopropionyl]-2-(2"-furanyl)glycine], the IC50 in assay [1] is < 1 µM.
Consider `O=C(N[C@@H](C(=O)O)c1cccc([N+](=O)[O-])c1)C(CS)Cc1ccccc1` (stereo partly drawn) [Example 18, N-[2'-Benzyl-3'-mercaptopropionyl]-3-nitro-D-phenylglycine], for which the IC50 in assay [1] was < 1 µM.
As to `CCC(S)C(Cc1ccccc1)C(=O)N[C@@H](C(=O)O)c1ccccc1` (stereo partly drawn) [Example 49, N-[2-Benzyl-3-mercaptopentanoyl]-D-phenylglycine], in assay [2] (setting [3]), the MIC was > 128 µg/mL.
Take `O=C(N[C@@H](C(=O)O)c1ccccc1)C(CS)C1CCc2ccccc21` (stereo partly drawn) [Example 41, N-[2'-(Indan-1-yl)-3'-mercaptopropanoyl]-D-phenylglycine]: the IC50 in assay [1] was < 1 µM.
`Cn1cc(C(NC(=O)C(CS)Cc2ccccc2)C(=O)O)cn1` (stereo not drawn) [Example 25, N-[2'-Benzyl-3'-mercaptopropionyl]4-[1-methylisoiinidazolyl]glycine]: the IC50 in assay [1] was < 1 µM.
Consider `O=C(N[C@@H](C(=O)O)c1ccccc1)C(CS)CCc1ccc2nc(C(F)(F)F)ccc2c1` (single isomer, unassigned) [47 (Isomer B), N-[2'-(Mercaptomethyl)-4'-(2"-trifluoromethylquinolin-6"-yl)butanoyl]-D-phenylglycine], for which, in assay [1], the IC50 was < 1 µM.
On to `O=C(N[C@@H](C(=O)O)c1ccccc1)[C@@H](CS)CCCCCc1ccccc1` [40f), N-[(S)-2'-Mercaptomethyl-7'-phenylheptanoyl]-D-phenylglycine], for which, in assay [1], the IC50 was < 1 µM.
For `O=C(N[C@@H](C(=O)O)c1ccccc1)[C@@H](CS)CCc1ccccc1` [37f), N-[(S)-2'-Mercaptomethyl-4'-phenylbutanoyl]-D-phenylglycine], the IC50 in assay [1] is < 1 µM. In assay [2] (setting [3]), the MIC was > 128 µg/mL.
As for `O=C(N[C@@H](C(=O)O)c1ccc(O)c(O)c1)C(CS)Cc1ccccc1` (stereo partly drawn) [Example 15, N-[2'-Benzyl-3'-mercaptopropionyl]-3,4-dihydroxy-D-phenylglycine], the IC50 in assay [1] was < 1 µM.
For `O=C(NC(C(=O)O)c1ccoc1)C(CS)Cc1ccccc1` (stereo not drawn) [Example 32, N-[2'-Benzyl-3'-mercaptopropionyl]-2-(3"-furanyl)glycine], the IC50 in assay [1] is < 1 µM. For the same compound, in assay [2] (setting [3]), the MIC is > 128 µg/mL.
Regarding `O=C(N[C@@H](Cc1c[nH]c2ccccc12)C(=O)O)C(CS)Cc1ccccc1` (stereo partly drawn) [5d), N-[2'-Benzyl-3'-mercaptopropionyl]tryptophan], the IC50 in assay [1] was < 1 µM.
`O=C(N[C@H](Cc1c[nH]c2ccccc12)C(=O)O)C(CS)Cc1ccccc1` (stereo partly drawn) [5e), N-[2'-Benzyl-3'-mercaptopropionyl]-D-tryptophan]: in assay [1], the IC50 is < 1 µM.
For the compound `O=C(NC(C(=O)O)c1cc2ccccc2s1)C(CS)Cc1ccccc1` (stereo not drawn) [Example 31, N-[2'-Benzyl-3'-mercaptopropionyl]-2-(2"-benzothienyl)glycine], in assay [1], the IC50 was < 1 µM. Also, the MIC in assay [2] (setting [3]) is > 128 µg/mL.
On to `O=C(NC(C(=O)O)c1ccsc1)C(CS)Cc1ccccc1` (stereo not drawn) [Example 43, N-[2'-Benzyl-3'-mercaptopropionyl]-2-(3"-thienyl)glycine], for which the IC50 in assay [1] was < 1 µM. The MIC in assay [2] (setting [3]) was > 128 µg/mL.
`O=C(N[C@@H](C(=O)O)c1ccc(F)cc1)C(CS)Cc1ccccc1` (stereo partly drawn) [Example 16, N-[2'-Benzyl-3'-mercaptopropionyl]-4-fluoro-D-phenylglycine]: in assay [1], the IC50 is < 1 µM.
On to `CC(S)C(CCc1ccccc1)C(=O)N[C@@H](C(=O)O)c1ccccc1` (stereo partly drawn) [Example 44, N-[2'-(1"-Mercaptoethyl)-4'-phenylbutanoyl]-D-phenylglycine], for which the IC50 in assay [1] is < 1 µM.
Consider `Cc1ccc(C(NC(=O)C(CS)Cc2ccccc2)C(=O)O)cc1` (stereo not drawn) [Example 24, N-[2'-Benzyl-3'-mercaptopropionyl]-4-methylphenylglycine], for which the IC50 in assay [1] is < 1 µM. Also, the MIC in assay [2] (setting [3]) was > 128 µg/mL.
In the same order, the values of `CC(C)CC(CS)C(=O)N[C@@H](C(=O)O)c1ccccc1` (stereo partly drawn) [Example 23, N-(4-Methyl-2-mercaptomethylpentanoyl]-D-phenylglycine] are < 1 µM and > 128 µg/mL.
As for `CC(S)C(Cc1ccccc1)C(=O)N[C@@H](C(=O)O)c1ccccc1` (single isomer, unassigned) [Example 50 (Isomer B), N-[2'-Benzyl-3'-mercaptobutanoyl]-D-phenylglycine], the IC50 in assay [1] is < 1 µM.
Turning to `O=C(N[C@@H](C(=O)O)c1ccccc1)C(CS)CCc1ccc(OC(F)F)cc1` (stereo partly drawn) [Example 55, N-[2'-Mercaptomethyl-4'-(4"-difluoromethoxphenyl)butanoyl)-D-phenylglycine], the IC50 in assay [1] was < 1 µM. The MIC in assay [2] (setting [3]) is > 128 µg/mL.
As for `CC(S)C(Cc1ccccc1)C(=O)N[C@@H](C(=O)O)c1ccccc1` (single isomer, unassigned) [Example 50 (Isomer C), N-[2'-Benzyl-3'-mercaptobutanoyl]-D-phenylglycine], the IC50 in assay [1] was < 1 µM.
`CC(CS)C(=O)N[C@@H](C(=O)O)c1ccccc1` (stereo partly drawn) [Example 22, N-[2'-Methyl-3'-mercaptopropionyl]-D-phenylglycine]: the IC50 in assay [1] is < 1 µM. Besides, the MIC in assay [2] (setting [3]) was > 128 µg/mL.
For the compound `O=C(N[C@@H](C(=O)O)c1ccccc1)C(Cc1ccccc1)C1(S)CC1` (stereo partly drawn) [Example 52, N-[2'-Benzyl-2'-(1"-mercaptocyclopropyl)acetyl]-D-phenylglycine], the MIC in assay [2] (setting [3]) was > 128 µg/mL.
Take `O=C(N[C@@H](C(=O)O)c1ccccc1)[C@@H](CS)CCCc1ccccc1` [38f), N-[(S)-2'-Mercaptomethyl-5'-phenylpentanoyl]-D-phenylglycine]: in assay [1], the IC50 was < 1 µM. The MIC in assay [2] (setting [3]) is > 128 µg/mL.
Regarding `O=C(N[C@@H](C(=O)O)c1ccc(O)cc1)C(CS)Cc1ccccc1` (stereo partly drawn) [Example 12, N-[2'-Benzyl-3'-mercaptopropionyl]-4-hydroxy-D-phenylglycine], in assay [1], the IC50 is < 1 µM. Moreover, the MIC in assay [2] (setting [3]) is > 128 µg/mL.
Turning to `CC(S)C(Cc1ccccc1)C(=O)N[C@@H](C(=O)O)c1ccccc1` (single isomer, unassigned) [Example 50 (all isomers), N-[2'-Benzyl-3'-mercaptobutanoyl]-D-phenylglycine], in assay [2] (setting [3]), the MIC was > 128 µg/mL.
As for `O=C(N[C@@H](C(=O)O)c1ccccc1)C(CS)CCOc1ccccc1` (stereo partly drawn) [Example 42, N-[2'-Mercaptomethyl-4'-phenoxybutanoyl]-D-phenylglycine], the IC50 in assay [1] was < 1 µM.
In the case of `COc1ccc(C(NC(=O)C(CS)Cc2ccccc2)C(=O)O)cc1` (stereo not drawn) [Example 13, N-[2'-Benzyl-3'-mercaptopropionyl]4-methoxyphenylglycine], the IC50 in assay [1] was < 1 µM. Moreover, in assay [2] (setting [3]), the MIC was > 128 µg/mL.
On to `O=C(N[C@@H](C(=O)O)c1ccccc1)[C@@H](CS)Cc1ccccc1` [9i), [2'S]-N-[2'-Benzyl-3'-mercaptopropionyl]-D-phenylglycine], for which the IC50 in assay [1] is < 1 µM.
Regarding `O=C(N[C@@H](C(=O)O)c1ccccc1)C(CS)CCCCc1ccccc1` (stereo partly drawn) [Example 39, N-[2'-Mercaptomethyl-6'-phenylhexanoyl]-D-phenylglycine], the IC50 in assay [1] was < 1 µM.
For `O=C(NC(C(=O)O)c1cccs1)C(CS)Cc1ccccc1` (stereo not drawn) [Example 20, N-[2'-Benzyl-3'-mercaptopropionyl]-2-thienylglycine], the IC50 in assay [1] is < 1 µM.
Regarding `O=C(NC(C(=O)O)c1ccccc1)C(CS)Cc1ccccc1` (stereo not drawn) [Example 9e), N-[2'-Benzyl-3'-mercaptopropionyl]phenylglycine], the IC50 in assay [1] was < 1 µM.
Take `O=C(N[C@@H](C(=O)O)c1ccccc1)C(CS)Cc1ccccc1` (stereo partly drawn) [Example 9k), N-[2'-Benzyl-3'-mercaptopropionyl]-D-phenylglycine]: in assay [1], the IC50 was < 1 µM. In addition, the MIC in assay [2] (setting [3]) was > 128 µg/mL.
For the compound `C[C@@H](O)[C@H]1C(=O)N2C(C(=O)O)=C(S[C@@H]3CN[C@H](C(=O)N(C)C)C3)[C@H](C)[C@H]12` [meropenem, reference compound], the MIC in assay [2] (read-out: MIC (μg/ml) of meropenem alone) was > 128 µg/mL.
For the compound `O=C(NC(C(=O)O)c1ccccc1F)C(CS)Cc1ccccc1` (stereo not drawn) [Example 19, N-[2'-Benzyl-3'-mercaptopropionyl]-2-fluorophenylglycine], the IC50 in assay [1] was < 1 µM. The MIC in assay [2] (setting [3]) is > 128 µg/mL.
For `CC(C)CC(C(=O)N[C@@H](C(=O)O)c1ccccc1)C(C)S` (stereo partly drawn) [Example 27, N-[2'-Isobutyl-3'-mercaptobutanoyl]-D phenylglycine], the IC50 in assay [1] was < 1 µM. In assay [2] (setting [3]), the MIC was > 128 µg/mL.
Regarding `O=C(NC(C(=O)O)c1ccc(O)c([N+](=O)[O-])c1)C(CS)Cc1ccccc1` (stereo not drawn) [Example 14, N-[2'-Benzyl-3'-mercaptopropionyl]-4-hydroxy-3-nitrophenylglycine], the IC50 in assay [1] was < 1 µM. The MIC in assay [2] (setting [3]) was > 128 µg/mL.
As to `O=C(O)c1ccc(CCC(CS)C(=O)N[C@@H](C(=O)O)c2ccccc2)cc1` (single isomer, unassigned) [46 (Isomer A), N-[2'-(Mercaptomethyl)-4'-(4"-hydroxycarbonyl)phenylbutanoyl]-D-phenylglycine], the IC50 in assay [1] is < 1 µM.
